Measurements: paper PMC8071248, “Characterization of Dog Glutathione Transferase P1-1, an Enzyme Relevant to Veterinary Medicine” (International Journal of Molecular Sciences, 2021)

Experiments:
[1] = biological target: T1, dog GST P1-1 (Canis lupus familiaris, UniProt A0A8I3QRM6); type: biochemical; settings: compound as substrate with GSH; 30 °C; substrate-specific concentrations and pH
Experimental: The purified dog GST P1-1 enzyme was assayed spectrophotometrically with various substrates representing different types of chemical reactions, including substitution, reduction, addition, and isomerization.
Activity measurements with alternative substrates were performed spectrophotometrically on a Shimadzu (UV-250 1 PC) instrument. All measurements were conducted at 30 °C and in a 1 mL quartz cuvette, except for the alkenals, which were measured in a 0.5 mL quartz cuvette with a 5 mm light path. The conditions used with the final concentrations in the cuvette were as follows. CDNB: (Δε340 nm = 9600 cm^−1 M^−1), 1 mM GSH, 1 mM CDNB (dissolved in ethanol), measured at pH 6.5 in buffer A (0.1 M NaH2PO4/Na2HPO4 with 1 mM EDTA); CuOOH: (Δε340 nm = −6200 cm^−1 M^−1), 1 mM GSH, 1.5 mM CuOOH (dissolved in acetonitrile), 0.1 mM NADPH, 0.3 units glutathione reductase, measured at pH 7.0 in buffer A; Alkenals: (Δε225 nm = −19,200 cm^−1 M^−1), 0.5 mM GSH, 0.1 mM alkenals (dissolved in acetonitrile), measured at pH 6.5 in buffer A; EA: (Δε270 nm = 5000 cm^−1 M^−1), 0.25 mM GSH, 0.2 mM EA (dissolved in acetonitrile), measured at pH 6.5 in buffer A; AD: (Δε248 nm = 16,300 cm^−1 M^−1), 1 mM GSH, 0.1 mM AD (dissolved in methanol), measured at pH 8.0 in 0.025 M NaH2PO4/Na2HPO4 with 1 mM EDTA; PEITC: (Δε274 nm = 8890 cm^−1 M^−1), BITC: (Δε274 nm = 9250 cm^−1 M^−1), AITC: (Δε274 nm = 7450 cm^−1 M^−1), PITC: (Δε274 nm = 8350 cm^−1 M^−1), cHITC (Δε274 nm = 8520 cm^−1 M^−1), 1 mM GSH, 0.4 mM ITC (dissolved in acetonitrile), measured at pH 6.5 in buffer A.

[2] = tested on: Human GST P1-1/Ile105; set-up: method as in PMID 9600848; settings: compound as substrate; cited from earlier work
[3] = biological target: T1, dog GST P1-1; assay: biochemical; type: biochemical; settings: for IC50: 1 mM GSH and 0.4 mM benzyl isothiocyanate as substrates, standard assay conditions
[4] = biological target: T1, dog GST P1-1; assay: Activation of the prodrug Telcyta by GST P1-1, TLC assay with ninhydrin staining; type: biochemical; settings: 3 mM Telcyta, 0.25 mg/mL enzyme, pH 7.5, 37 °C, nonenzymatic background subtracted
Experimental: The prodrug Telcyta is a substrate for GSTs in a reaction releasing a multifunctional phosphorodiamidate mustard (Figure 5). The prodrug was most effectively activated by human GST P1-1 from the enzymes examined. Telcyta was tested with the dog GST P1-1 for comparison. We developed a chromatographic method to assay the reaction. Aliquots of the reaction mixture were analyzed by thin-layer chromatography (TLC), and the ninhydrin-reactive product as well as the substrate were quantified at different time points (Figure 6). Conditions were chosen to ascertain a linear response of ninhydrin staining with increasing analyte concentration. The enzymatic activity was obtained by subtracting the nonenzymatic background reaction.
Telcyta is a tripeptide derivative, which releases an alkylating agent by the action of GSTs and is converted to another tripeptide. Both substrate and product peptides are reactive with ninhydrin and the reaction can be monitored by sampling of the reaction mixture at consecutive time points. […] A background reaction was also measured in the absence of enzyme. […]
Six TLC plates (silica coated), one for each time point, were prepared and sampling occurred immediately after addition of Telcyta and every 3.5 min thereafter. The reaction was monitored over a total of 17.5 min. […]
Catalytic activity was estimated both by visual observation and by quantitative ImageJ analysis. […]

[5] = biological target: Cys48 (UniProt position 48, SLKASCLYGQL); settings: cited from earlier work

T1 sequence (A0A8I3QRM6 1-210): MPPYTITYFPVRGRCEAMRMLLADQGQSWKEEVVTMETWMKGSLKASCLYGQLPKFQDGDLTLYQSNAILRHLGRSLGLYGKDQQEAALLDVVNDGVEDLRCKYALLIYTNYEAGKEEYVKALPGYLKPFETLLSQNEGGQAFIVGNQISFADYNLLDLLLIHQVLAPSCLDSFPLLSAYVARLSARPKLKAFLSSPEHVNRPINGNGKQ

O=[N+]([O-])c1ccc(Cl)c([N+](=O)[O-])c1 [1-Chloro-2,4-dinitrobenzene]
Specific Activity, Dog GST P1-1 [1]: 23.0 ± 1.3 µmol/min/mg
Specific Activity, Human GST P1-1/Ile105 [2]: 106 µmol/min/mg

C=CCN=C=S [Allyl isothiocyanate]
Specific Activity, Dog GST P1-1 [1]: 1.94 ± 0.60 µmol/min/mg
Specific Activity, Human GST P1-1/Ile105 [2]: 38 µmol/min/mg

S=C=NCc1ccccc1 [Benzyl isothiocyanate]
Specific Activity, Dog GST P1-1 [1]: 39.0 ± 5.2 µmol/min/mg
Specific Activity, Human GST P1-1/Ile105 [2]: 63 µmol/min/mg

Nc1c(S(=O)(=O)O)cc(Nc2ccc(Nc3nc(Cl)nc(Nc4ccccc4S(=O)(=O)O)n3)c(S(=O)(=O)O)c2)c2c1C(=O)c1ccccc1C2=O [Cibacron Blue]
IC50 [3]: 0.043 ± 0.007 µM
Shape of inhibition curve (cooperativity) ([3]; benzyl isothiocyanate as substrate): positive cooperativity

CC(C)(OO)c1ccccc1 [Cumene hydroperoxide]
Specific Activity, Dog GST P1-1 [1]: 0.07 ± 0.01 µmol/min/mg
Specific Activity, Human GST P1-1/Ile105 [2]: 0.03 µmol/min/mg

S=C=NC1CCCCC1 [Cyclohexyl isothiocyanate]
Specific Activity, Dog GST P1-1 [1]: 1.27 ± 0.08 µmol/min/mg
Specific Activity, Human GST P1-1/Ile105 [2]: 11 µmol/min/mg

C=C(CC)C(=O)c1ccc(OCC(=O)O)c(Cl)c1Cl [Ethacrynic acid]
Specific Activity, Dog GST P1-1 [1]: 2.05 ± 0.13 µmol/min/mg

S=C=NCCc1ccccc1 [Phenethyl isothiocyanate]
Specific Activity, Dog GST P1-1 [1]: 6.37 ± 1.03 µmol/min/mg
Specific Activity, Human GST P1-1/Ile105 [2]: 60 µmol/min/mg

CCCN=C=S [Propyl isothiocyanate]
Specific Activity, Dog GST P1-1 [1]: 2.55 ± 0.20 µmol/min/mg
Specific Activity, Human GST P1-1/Ile105 [2]: 49 µmol/min/mg

NC(CCC(=O)NC(CS(=O)(=O)CCOP(=O)(N(CCCl)CCCl)N(CCCl)CCCl)C(=O)NC(C(=O)O)c1ccccc1)C(=O)O [Telcyta, γ-L-Glutamyl-α-amino-β-(2-ethyl-N,N,N′,N′-tetrakis(2-chloroethyl)phosphorodiamidate)sulfonylpropionyl-R(−)phenylglycine]
Fold lower activity per mg of protein of dog GST P1-1 than the human enzyme [4]: 18 fold

[Cl][Sn]([c]1ccccc1)([c]1ccccc1)[c]1ccccc1 [Triphenyltin chloride]
IC50 [3]: 3.11 ± 0.38 µM

CCCCCCC/C=C/C=O [trans-2-Decenal]
Specific Activity, Dog GST P1-1 [1]: 0.111 ± 0.005 µmol/min/mg

CCCCCCCCC/C=C/C=O [trans-2-Dodecenal]
Specific Activity, Dog GST P1-1 [1]: 0.046 ± 0.006 µmol/min/mg

CCCCCC/C=C/C=O [trans-2-Nonenal]
Specific Activity, Dog GST P1-1 [1]: 0.124 ± 0.005 µmol/min/mg

CC/C=C/C=O [trans-2-Pentenal]
Specific Activity, Dog GST P1-1 [1]: 0.100 ± 0.002 µmol/min/mg

C[C@]12CCC(=O)CC1=CC[C@@H]1[C@@H]2CC[C@]2(C)C(=O)CC[C@@H]12 [Δ^5-androstene-3,17-dione]
Specific Activity, Dog GST P1-1 [1]: 0.014 ± 0.005 µmol/min/mg
Specific Activity, Human GST P1-1/Ile105 [2]: 0.01 µmol/min/mg

Glutathione transferase P1-1 (GST P1-1, class Pi) (Homo sapiens)
pKa [5]: 4.2
